From US11780839B2, “Compounds for treating Huntington's disease” (PTC THERAPEUTICS, INC., priority 2018, dated 2023)

test system: Endogenous Huntingtin Protein; assay: Endogenous Huntingtin Protein Assay (ELISA-based Meso Scale Discovery electrochemiluminescence); assay type: cell-based; conditions: MSD electrochemiluminescence, Table 1
Experimental: Compounds of Formula (I) or Formula (II) were tested using the Meso Scale Discovery (MSD) Assay provided in International Application No. PCT/US2016/066042, filed on Dec. 11, 2016 and claiming priority to U.S. Provisional Application 62/265,652 filed on Dec. 10, 2015, the entire contents of which are incorporated herein by reference.
The Endogenous Huntingtin Protein assay used in Example 1 was developed using the ELISA-based MSD electrochemiluminescence assay platform.
Endogenous Huntingtin Protein Assay
Meso Scale Discovery (MSD) 96-well or 384-well plates were coated overnight at 4° C. with MW1 (expanded polyglutamine) or MAB2166 monoclonal antibody (for capture) at a concentration of 1 μg/mL in PBS (30 μL per well). Plates were then washed three times with 300 μL wash buffer (0.05% Tween-20 in PBS) and blocked (100 μL blocking buffer; 5% BSA in PBS) for 4-5 hours at room temperature with rotational shaking and then washed three times with wash buffer.
Samples (25 μL) were transferred to the antibody-coated MSD plate and incubated overnight at 4° C. After removal of the lysates, the plate was washed three times with wash buffer, and 25 μL of #5656S (Cell signaling; rabbit monoclonal) secondary antibody (diluted to 0.25 μg/mL in 0.05% Tween-20 in blocking buffer) was added to each well and incubated with shaking for 1 Hour at room temperature. Following incubation with the secondary antibody, the wells were rinsed with wash buffer after which 25 μL of goat anti-rabbit SULFO TAG secondary detection antibody (required aspect of the MSD system) (diluted to 0.25 μg/mL in 0.05% Tween-20 in blocking buffer) was added to each well and incubated with shaking for 1 hour at room temperature. After rinsing three times with wash buffer, 150 μL of read buffer T with surfactant (MSD) were added to each empty well, and the plate was imaged on a SI 6000 imager (MSD) according to manufacturers' instructions provided for 96- or 384-well plates.

Row | Compound | IC50
1 | CN(c1ncc(-c2ccc(-c3ccnn3C)cc2O)nn1)C1CC(C)(C)NC(C)(C)C1 [Cpd 124, 5-(1-methyl-1H-pyrazol-5-yl)-2-{3-[methyl(2,2,6,6-tetramethylpiperidin-4-yl)amino]-1,2,4-triazin-6-yl}phenol] | 0.1 to 0.5 µM
2 | CN(c1ncc(-c2ccc(-c3cc4cn[nH]c4cn3)cc2O)nn1)C1CC(C)(C)NC(C)(C)C1 [Cpd 184, 2-{3-[methyl(2,2,6,6-tetramethylpiperidin-4-yl)amino]-1,2,4-triazin-6-yl}-5-(1H-pyrazolo[3,4-c]pyridin-5-yl)phenol] | ≤ 0.1 µM
3 | CC1(C)CC(Nc2ncc(-c3ccc(-c4ncco4)cc3O)nn2)CC(C)(C)N1 [Cpd 352, 5-(1,3-oxazol-2-yl)-2-{3-[(2,2,6,6-tetramethylpiperidin-4-yl)amino]-1,2,4-triazin-6-yl}phenol] | ≤ 0.1 µM
4 | Oc1cc(-c2cn[nH]c2)ccc1-c1cnc(NC2C[C@H]3CC[C@@H](C2)N3)nn1 (some centres unmarked) [Cpd 78] | ≤ 0.1 µM
5 | CC1(C)C[C@H](Nc2ncc(-c3ccc(-c4c[nH]nn4)cc3O)nn2)[C@H](F)C(C)(C)N1 [Cpd 247, 2-(3-{[(3S,4S)-3-fluoro-2,2,6,6-tetramethylpiperidin-4-yl]amino}-1,2,4-triazin-6-yl)-5-(1H-1,2,3-triazol-4-yl)phenol] | ≤ 0.1 µM
6 | CNC1CCN(c2ncc(-c3ccc(-c4cnn(C)c4)cc3O)nn2)C1 (stereo not drawn) [Cpd 205, 2-{3-[3-(methylamino)pyrrolidin-l-yl]-1,2,4-triazin-6-yl}-5-(1-methyl-1H-pyrazol-4-yl)phenol] | ≤ 0.1 µM
7 | CN(c1ncc(-c2ccc(-c3nnn(C)n3)cc2O)nn1)C1CC(C)(C)NC(C)(C)C1 [Cpd 143, 2-{3-[methyl(2,2,6,6-tetramethylpiperidin-4-yl)amino]-1,2,4-triazin-6-yl}-5-(2-methyl-2H-tetrazol-5-yl)phenol] | ≤ 0.1 µM
8 | CN(c1ncc(-c2ccc(-c3ccn(C)c(=O)c3)cc2O)nn1)C1CC(C)(C)NC(C)(C)C1 [Cpd 56] | ≤ 0.1 µM
9 | CC(C)NC(C)C1CCN(c2ncc(-c3ccc(-c4cn[nH]c4)cc3O)nn2)C1 (centres unmarked) [Cpd 414, 2-[3-(3-{1-[(propan-2-yl)amino]ethyl}pyrrolidin-1-yl)-1,2,4-triazin-6-yl]-5-(1H-pyrazol-4-yl)phenol] | ≤ 0.1 µM
10 | CC1(C)CN(c2ncc(-c3ccc(-c4cn[nH]c4)cc3O)nn2)CC(C)(C)N1 [Cpd 282, 5-(1H-pyrazol-4-yl)-2-[3-(3,3,5,5-tetramethylpiperazin-1-yl)-1,2,4-triazin-6-yl]phenol] | > 0.5 µM
11 | CN(c1cnc(-c2ccc(-c3cn[nH]c3)cc2O)nn1)C1CC(C)(C)NC(C)(C)C1 [Cpd 24, 2-{6-[methyl(2,2,6,6-tetramethylpiperidin-4-yl)amino]-1,2,4-triazin-3-yl}-5-(1H-pyrazol-4-yl)phenol] | 0.1 to 0.5 µM
12 | CC1(NC2CCN(c3ncc(-c4ccc(-c5cn[nH]c5)cc4O)nn3)C2)CC1 (centres unmarked) [Cpd 340, 2-(3-{3-[(1-methylcyclopropyl)amino]pyrrolidin-1-yl}-1,2,4-triazin-6-yl)-5-(1H-pyrazol-4-yl)phenol] | ≤ 0.1 µM
13 | Oc1cc(-c2cn[nH]c2)ccc1-c1cnc(N2CCN3CCC[C@H]3C2)nn1 [Cpd 116, 2-{3-[(8aS)-hexahydropyrrolo[1,2-a]pyrazin-2(1H)-yl]-1,2,4-triazin-6-yl}-5-(1H-pyrazol-4-yl)phenol] | 0.1 to 0.5 µM
14 | Cn1ccc(-c2ccc(-c3cnc(N4CCC(NC(C)(C)C)C4)nn3)c(O)c2)n1 (centres unmarked) [Cpd 175, 2-{3-[3-(tert-butylamino)pyrrolidin-1-yl]-1,2,4-triazin-6-yl}-5-(1-methyl-1H-pyrazol-3-yl)phenol] | 1 to 3 µM
15 | CNC1CCN(c2ncc(-c3ccc(-c4cnc(C)o4)cc3O)nn2)C1 (stereo not drawn) [Cpd 350, 2-{3-[3-(methylamino)pyrrolidin-l-yl]-1,2,4-triazin-6-yl}-5-(2-methyl-1,3-oxazol-5-yl)phenol] | ≤ 0.1 µM
16 | NC1CN(c2ncc(-c3ccc(-c4cn[nH]c4)cc3O)nn2)CC12COC2 (centres unmarked) [Cpd 334, 2-[3-(8-amino-2-oxa-6-azaspiro[3.4]octan-6-yl)-1,2,4-triazin-6-yl]-5-(1H-pyrazol-4-yl)phenol] | 1 to 3 µM
17 | Oc1cc(-c2cn[nH]c2)ccc1-c1cnc(N2CCC(CNC3CC4CCC(C3)O4)C2)nn1 (centres unmarked) [Cpd 405, 2-[3-(3-{[(8-oxabicyclo[3.2.1]octan-3-yl)amino]methyl}pyrrolidin-1-yl)-1,2,4-triazin-6-yl]-5-(1H-pyrazol-4-yl)phenol] | ≤ 0.1 µM
18 | Cn1cc(-c2ccc(-c3cnc(N4CCC(NC5COC5)C4)nn3)c(O)c2)cn1 (centres unmarked) [Cpd 313, 5-(1-methyl-1H-pyrazol-4-yl)-2-(3-{3-[(oxetan-3-yl)amino]pyrrolidin-1-yl}-1,2,4-triazin-6-yl)phenol] | 1 to 3 µM

Row | Compound | IC50
19 | Cn1nnc(-c2ccc(-c3cnc(NC4CC(C)(C)NC(C)(C)C4)nn3)c(O)c2)n1 [Cpd 267, 5-(2-methyl-2H-tetrazol-5-yl)-2-{3-[(2,2,6,6-tetramethylpiperidin-4-yl)amino]-1,2,4-triazin-6-yl}phenol] | ≤ 0.1 µM
20 | CC(=O)c1cn(-c2ccc(-c3cnc(N(C)C4CC(C)(C)NC(C)(C)C4)nn3)c(O)c2)cn1 [Cpd 140, 1-[1-(3-hydroxy-4-{3-[methyl(2,2,6,6-tetramethylpiperidin-4-yl)amino]-1,2,4-triazin-6-yl}phenyl)-1H-imidazol-4-yl]ethan-l-one] | ≤ 0.1 µM
21 | Cc1nc2c(C)cc(-c3ccc(-c4cnc(N(C)C5CC(C)(C)NC(C)(C)C5)nn4)c(O)c3)nc2o1 [Cpd 169, 5-(2,7-dimethyl[1,3]oxazolo[5,4-b]pyridin-5-yl)-2-{3-[methyl(2,2,6,6-tetramethylpiperidin-4-yl)amino]-1,2,4-triazin-6-yl}phenol] | ≤ 0.1 µM
22 | CN(c1ncc(-c2ccc(-c3ccc(O)cc3)cc2O)nn1)C1CC(C)(C)NC(C)(C)C1 [Cpd 103, 4-{3-[methyl(2,2,6,6-tetramethylpiperidin-4-yl)amino]-1,2,4-triazin-6-yl}[1,1'-biphenyl]-3,4’-diol] | ≤ 0.1 µM
23 | CCC1CC(Oc2ncc(-c3ccc(-c4cn[nH]c4)cc3O)nn2)CC(CC)N1 [Cpd 120, 2-{3-[(2R,4s,6S)-2,6-diethylpiperidin-4-yl]oxy}-1,2,4-triazin-6-yl)-5-(1H-pyrazol-4-yl)phenol] | 0.1 to 0.5 µM
24 | COc1cnn(-c2ccc(-c3cnc(N(C)C4CC(C)(C)NC(C)(C)C4)nn3)c(O)c2)c1 [Cpd 55, 5-(4-methoxy-1H-pyrazol-1-yl)-2-{3-[methyl(2,2,6,6-tetramethylpiperidin-4-yl)amino]-1,2,4-triazin-6-yl}phenol] | ≤ 0.1 µM
25 | CN(c1ncc(-c2cc(F)c(-c3ccn[nH]3)cc2O)nn1)C1CC(C)(C)NC(C)(C)C1 [Cpd 125, 4-fluoro-2-{3-[methyl(2,2,6,6-tetramethylpiperidin-4-yl)amino]-1,2,4-triazin-6-yl}-5-(1H-pyrazol-5-yl)phenol] | ≤ 0.1 µM
26 | CN(c1ncc(-c2ccc(-c3ccc(=O)[nH]c3)cc2O)nn1)C1CC(C)(C)NC(C)(C)C1 [Cpd 104, 5-(3-hydroxy-4-{3-[methyl(2,2,6,6-tetramethylpiperidin-4-yl)amino]-1,2,4-triazin-6-yl}phenyl)pyridin-2(1H)-one] | ≤ 0.1 µM
27 | Oc1cc(-c2c[nH]nc2F)ccc1-c1cnc(N2CC3(CCNCC3)C2)nn1 [Cpd 151, 2-[3-(2,7-diazaspiro[3.5]nonan-2-yl)-1,2,4-triazin-6-yl]-5-(3-fluoro-1H-pyrazol-4-yl)phenol] | ≤ 0.1 µM
28 | CCC(C)(C)NC1CCN(c2ncc(-c3ccc(-c4cn[nH]c4)cc3O)nn2)C1 (centres unmarked) [Cpd 154, 2-(3-{3-[(2-methylbutan-2-yl)amino]pyrrolidin-1-yl}-1,2,4-triazin-6-yl)-5-(1H-pyrazol-4-yl)phenol] | ≤ 0.1 µM
29 | Cc1ccnc(-c2ccc(-c3cnc(N(C)C4CC(C)(C)NC(C)(C)C4)nn3)c(O)c2)n1 [Cpd 129, 5-(4-methylpyrimidin-2-yl)-2-{3-[methyl(2,2,6,6-tetramethylpiperidin-4-yl)amino]-1,2,4-triazin-6-yl}phenol] | 0.1 to 0.5 µM
30 | CC(C)NC1CCN(c2ncc(-c3ccc(-c4cnn(C)c4)cc3O)nn2)C1 (centres unmarked) [Cpd 203] | ≤ 0.1 µM
31 | CN(c1ncc(-c2ccc(-c3cnn(C)c3)cc2O)nn1)[C@H]1C[C@]2(C)CC[C@](C)(C1)N2 [Cpd 408] | ≤ 0.1 µM
32 | Oc1cc(-c2cn[nH]c2)ccc1-c1cnc(N2CCC(CNC3CCCC3)C2)nn1 (centres unmarked) [Cpd 386, 2-(3-{3-[(cyclopentylamino)methyl]pyrrolidin-1-yl}-1,2,4-triazin-6-yl)-5-(1H-pyrazol-4-yl)phenol] | 0.1 to 0.5 µM
33 | CN(c1cnc(-c2ccc(-c3cnccn3)cc2O)nn1)C1CC(C)(C)NC(C)(C)C1 [Cpd 412, 2-{6-[methyl(2,2,6,6-tetramethylpiperidin-4-yl)amino]-1,2,4-triazin-3-yl}-5-(pyrazin-2-yl)phenol] | ≤ 0.1 µM
34 | CN(c1ncc(-c2ccc(-n3nccn3)cc2O)nn1)[C@H]1C[C@]2(C)CC[C@](C)(C1)N2 [Cpd 417] | ≤ 0.1 µM
35 | COc1cc(-c2ccc(-c3cnc(N4CCC(NC(C)(C)C)C4)nn3)c(O)c2)ncn1 (centres unmarked) [Cpd 217, 2-{3-[3-(tert-butylamino)pyrrolidin-1-yl]-1,2,4-triazin-6-yl}-5-(6-methoxypyrimidin-4-yl)phenol] | ≤ 0.1 µM
